{
  "source": "paper PMC7774306",
  "about": "“The Crystal Structures of Bacillithiol Disulfide Reductase Bdr (YpdA) Provide Structural and Functional Insight into a New Type of FAD-Containing NADPH-Dependent Oxidoreductase” (Biochemistry, 2020)",
  "key": {"Bc YpdA (Bdr)": {"target": "T1, Bc YpdA (Bdr) (Bacillus cereus, UniProt Q81FS4)", "T1 construct": "gene BC_1495; expressed and purified; FAD-containing; biological homotetramer; tag details only in supplement", "T1 sequence (Q81FS4 1-326)": "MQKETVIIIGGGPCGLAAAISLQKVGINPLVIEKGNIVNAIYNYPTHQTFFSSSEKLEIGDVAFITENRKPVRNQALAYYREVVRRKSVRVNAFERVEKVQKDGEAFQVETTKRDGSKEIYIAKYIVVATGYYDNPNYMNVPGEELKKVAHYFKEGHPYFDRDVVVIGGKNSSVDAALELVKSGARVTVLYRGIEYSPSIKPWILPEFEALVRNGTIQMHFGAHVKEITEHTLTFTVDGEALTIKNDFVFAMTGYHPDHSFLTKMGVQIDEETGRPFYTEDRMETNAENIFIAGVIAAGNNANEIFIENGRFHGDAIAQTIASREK", "assay": "NADPH consumption at […] nm", "assay_type": "biochemical", "conditions": "anaerobic"}, "Sa YpdA (Bdr) [1]": {"target": "T2, Sa YpdA (Bdr) (Staphylococcus aureus, UniProt A0A0H2WWS2)", "T2 construct": "gene SACOL1520; expressed and purified; FAD-containing; biological homotetramer; tag details only in supplement", "T2 sequence (A0A0H2WWS2 1-328)": "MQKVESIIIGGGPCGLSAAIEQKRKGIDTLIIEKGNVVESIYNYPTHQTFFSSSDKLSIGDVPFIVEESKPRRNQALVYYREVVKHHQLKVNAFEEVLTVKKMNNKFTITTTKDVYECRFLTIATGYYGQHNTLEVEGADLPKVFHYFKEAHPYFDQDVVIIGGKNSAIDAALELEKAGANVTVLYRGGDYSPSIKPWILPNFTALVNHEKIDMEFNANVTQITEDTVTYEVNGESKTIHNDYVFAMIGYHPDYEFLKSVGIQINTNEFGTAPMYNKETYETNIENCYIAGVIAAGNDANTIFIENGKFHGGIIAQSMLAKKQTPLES", "assay": "X-ray crystallography", "assay_type": "binding"}, "Sa YpdA (Bdr) [2]": {"target": "T2, Sa YpdA (Bdr)", "assay": "NADPH consumption at […] nm", "assay_type": "biochemical", "conditions": "NADPH as co-substrate; anaerobic"}},
  "data": [
    {"smiles": "NC(=O)C1=CN([C@@H]2O[C@H](COP(=O)(O)OP(=O)(O)OC[C@H]3O[C@@H](n4cnc5c(N)ncnc54)[C@H](OP(=O)(O)O)[C@@H]3O)[C@@H](O)[C@H]2O)C=CC1", "note": "[NADPH]", "values": [
      {"measurement": "NADPH consumption at 340 nm", "setting": "Bc YpdA (Bdr); BSSB as co-substrate", "result": "both Sa and Bc YpdAs can reduce BSSB with a rate of consumption of NADPH"},
      {"measurement": "X-ray crystallography", "setting": "Sa YpdA (Bdr) [1]; NADPH not added, co-purified, bound in chains C, D and F, FAD present", "result": "we observed in both Sa YpdA structures electron density for bound NADPH"}
    ]},
    {"smiles": "N[C@@H](CSSC[C@H](N)C(=O)N[C@H]1[C@@H](O[C@@H](CC(=O)O)C(=O)O)O[C@H](CO)[C@@H](O)[C@@H]1O)C(=O)N[C@H]1[C@@H](O[C@@H](CC(=O)O)C(=O)O)O[C@H](CO)[C@@H](O)[C@@H]1O", "note": "[BSSB]", "values": [
      {"measurement": "NADPH consumption at 340 nm", "setting": "Bc YpdA (Bdr); NADPH as co-substrate", "result": "YpdAs from Bc and Sa are both able to reduce BSSB"},
      {"measurement": "NADPH consumption at 340 nm", "setting": "Sa YpdA (Bdr) [2]", "result": "YpdAs from Bc and Sa are both able to reduce BSSB"}
    ]},
    {"smiles": "Cc1cc2nc3c(=O)[nH]c(=O)nc-3n(C[C@H](O)[C@H](O)[C@H](O)COP(=O)(O)OP(=O)(O)OC[C@H]3O[C@@H](n4cnc5c(N)ncnc54)[C@H](O)[C@@H]3O)c2cc1C", "note": "[FAD]", "values": [
      {"measurement": "X-ray crystallography", "setting": "Sa YpdA (Bdr) [1]; bound cofactor, 2.9 and 3.1 A resolution", "result": "Monomer structure alignment of Bc and Sa YpdA, displaying the NADPH and FAD binding domains"}
    ]}
  ]
}
